Experimental data published in patent US10988434B2, “Fragrance mixture” (SYMRISE AG, priority 2016, dated 2021).

Experiment: Storage stability under drastic conditions
Assay type: physicochemical
Conditions: 60° C. and 5 bar pressure
Experimental: Example 15: Stability Studies
Mesaconic acid diethyl ester (MSDEE) was stored alone and as a component of various formulations for 24 and 72 hours respectively under drastic conditions at 60° C. and 5 bar pressure. The remaining amount of active substance was then determined.

## CCOC(=O)/C=C(\C)C(=O)OCC [Mesaconic acid diethyl ester, (E)-2-methyl-but-2-endicarboxylic acid diethyl ester]
24 h
  Storage stability: remaining amount of active substance (MSDEE) After 24 h: 98%
72 h
  Storage stability: remaining amount of active substance (MSDEE) After 72 h: 98%
